Results reported in ChEMBL document CHEMBL1201862, “PubChem BioAssay data set” (2004).
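Exposure lasted 48 hours, with cells grown in 96-well plates and compounds tested at five concentrations. GI50 marks 50% less growth.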 Active and inactive are the calls of the source. Cut-off read from the data, not from the text of the source: active = GI50 up to about 1.1 µM and inactive = higher.

Assays:
Test in all cases: growth of human tumour cells (NCI), 48 h
[1] = test system: 786-0
[2] = test system: COLO 205
[3] = test system: DU-145
[4] = test system: HCT-15
[5] = test system: Hs-578T
[6] = test system: LOX IMVI
[7] = test system: MCF7
[8] = test system: MDA-N
[9] = test system: NCI/ADR-RES
[10] = test system: OVCAR-4
[11] = test system: RPMI-8226
[12] = test system: SF-268
[13] = test system: SK-MEL-28
[14] = test system: SK-OV-3
[15] = test system: T47D
[16] = test system: TK-10
[17] = test system: UO-31
[18] = test system: A498
[19] = test system: PC-3
[20] = test system: SNB-19

Row | SMILES | GI50 [1] | GI50 [2] | GI50 [3] | GI50 [4] | GI50 [5] | GI50 [6] | GI50 [7] | GI50 [8] | GI50 [9] | GI50 [10] | GI50 [11] | GI50 [12] | GI50 [13] | GI50 [14] | GI50 [15] | GI50 [16] | GI50 [17] | GI50 [18] | GI50 [19] | GI50 [20]
1 | O=C(Cc1ccccc1)NNc1nc(NNC(=O)c2ccncc2)nc(Nc2ccccc2)n1 | > 10 µM (inactive) | > 10 µM (inactive) | > 10 µM (inactive) | > 10 µM | > 10 µM (inactive) | > 10 µM (inactive) | > 10 µM (inactive) | > 10 µM (inactive) | > 10 µM (inactive) | > 10 µM (inactive) | > 10 µM (inactive) | > 10 µM (inactive) | > 10 µM (inactive) | > 10 µM (inactive) | > 10 µM (inactive) | > 10 µM (inactive) | 1.12 µM (active) | – | – | –
2 | [O-][n+]1ccccc1Sc1nc(Sc2cccc[n+]2[O-])nc(Sc2cccc[n+]2[O-])n1 | 1.27 µM (inactive) | 0.386 µM (active) | 3.27 µM (inactive) | 1.38 µM | 2.08 µM (inactive) | 0.92 µM (active) | 0.778 µM (active) | – | 2.92 µM (inactive) | 1.59 µM (inactive) | 0.385 µM (active) | 2.99 µM (inactive) | 0.697 µM (active) | 7.24 µM (inactive) | 2.03 µM (inactive) | 1.76 µM (inactive) | 1.77 µM (inactive) | 2.82 µM (inactive) | 0.726 µM (active) | 13 µM (inactive)
3 | C(=N\NC1=NCCCN1)/c1ccc(-c2cn3cc(/C=N/NC4=NCCCN4)ccc3n2)cc1 | 18.9 µM (inactive) | > 100 µM (inactive) | 26.6 µM (inactive) | > 100 µM | – | > 100 µM (inactive) | 32 µM (inactive) | > 100 µM (inactive) | > 100 µM (inactive) | > 100 µM (inactive) | > 27.9 µM (inactive) | > 100 µM (inactive) | > 100 µM (inactive) | > 100 µM (inactive) | > 100 µM (inactive) | > 100 µM (inactive) | > 100 µM (inactive) | > 41.7 µM (inactive) | > 40.1 µM (inactive) | > 100 µM (inactive)
4 | O=C1N(c2ccccc2)C2(c3ccccc3)CC3CCCC13S2 (configuration not stated) | 78.9 µM (inactive) | 43 µM (inactive) | > 100 µM (inactive) | 65.3 µM | 57.9 µM (inactive) | 53.5 µM (inactive) | 42.1 µM (inactive) | – | 40.8 µM (inactive) | 27.8 µM (inactive) | 27.5 µM (inactive) | 58.1 µM (inactive) | > 100 µM (inactive) | > 100 µM (inactive) | 31.3 µM (inactive) | 0.249 µM (active) | 78.9 µM (inactive) | 75 µM (inactive) | 21.9 µM (inactive) | > 100 µM (inactive)
5 | COc1cc(OCc2nc3cc(C(F)(F)F)ccc3nc2-c2ccccc2)cc(OC)c1OC | 96.2 µM (inactive) | > 100 µM (inactive) | 86.9 µM (inactive) | > 100 µM | 55.6 µM (inactive) | > 100 µM (inactive) | 56.4 µM (inactive) | – | 61.2 µM (inactive) | 95.3 µM (inactive) | 15.5 µM (inactive) | > 100 µM (inactive) | 65.3 µM (inactive) | > 100 µM (inactive) | 11.9 µM (inactive) | 70.3 µM (inactive) | > 100 µM (inactive) | > 100 µM (inactive) | 98.9 µM (inactive) | 94.6 µM (inactive)
6 | Cc1cc2nc3c(C#N)c(-c4ccccc4)cc(Nc4ccc(F)cc4)n3c2cc1C | 8.49 µM (inactive) | > 100 µM (inactive) | – | 9.25 µM | – | 13.4 µM (inactive) | – | – | 8.11 µM (inactive) | 53.6 µM (inactive) | > 100 µM (inactive) | 10.5 µM (inactive) | 46.2 µM (inactive) | 16.7 µM (inactive) | > 100 µM (inactive) | 12.4 µM (inactive) | – | 22.1 µM (inactive) | – | –
7 | NC(=S)N/N=C1\CCc2ccccc2C1 | > 100 µM (inactive) | > 100 µM (inactive) | > 100 µM (inactive) | > 100 µM | – | > 100 µM (inactive) | 54.2 µM (inactive) | > 100 µM (inactive) | > 100 µM (inactive) | > 100 µM (inactive) | > 100 µM (inactive) | > 100 µM (inactive) | > 100 µM (inactive) | > 100 µM (inactive) | 13 µM (inactive) | > 100 µM (inactive) | > 100 µM (inactive) | > 100 µM (inactive) | > 100 µM (inactive) | > 100 µM (inactive)
8 | O=NN(CCCl)C(=O)N[C@H]1CC[C@@H](C(=O)O)CC1 | 40.7 µM (inactive) | > 100 µM (inactive) | – | > 100 µM | – | 45.1 µM (inactive) | > 100 µM (inactive) | – | > 100 µM (inactive) | > 100 µM (inactive) | 46.3 µM (inactive) | 32.8 µM (inactive) | > 100 µM (inactive) | > 100 µM (inactive) | – | > 100 µM (inactive) | > 100 µM (inactive) | > 100 µM (inactive) | – | 70 µM (inactive)
9 | Nc1ccc(-c2nc3ccccc3s2)cc1F | 22.6 µM (inactive) | 20.9 µM (inactive) | 30.2 µM (inactive) | 33.2 µM | 29.1 µM (inactive) | 44.7 µM (inactive) | < 0.01 µM (active) | 37.2 µM (inactive) | 28.8 µM (inactive) | 18.7 µM (inactive) | – | 34 µM (inactive) | 46.6 µM (inactive) | 38.5 µM (inactive) | – | – | 14.2 µM (inactive) | 0.0775 µM (active) | 21.4 µM (inactive) | 19.2 µM (inactive)
10 | C=C(C)[C@H]1CC(=O)/C(C)=C\CC/C(C)=C/CC[C@@]2(C)O[C@@H]2C1 | 47.5 µM (inactive) | 16.5 µM (inactive) | 17.7 µM (inactive) | 33.9 µM | 30.9 µM (inactive) | 10.9 µM (inactive) | – | 35.2 µM (inactive) | 21.8 µM (inactive) | 22 µM (inactive) | 20.7 µM (inactive) | 23 µM (inactive) | 19.2 µM (inactive) | 24.4 µM (inactive) | – | 31.9 µM (inactive) | 20.7 µM (inactive) | > 100 µM (inactive) | 24.8 µM (inactive) | 59.8 µM (inactive)
11 | O=S1(=O)c2cnccc2N=C(NCc2ccccc2)N1c1ccccc1 | > 100 µM (inactive) | 61.9 µM (inactive) | 67.1 µM (inactive) | 74.5 µM | 58.3 µM (inactive) | > 100 µM (inactive) | 54.5 µM (inactive) | – | 68.1 µM (inactive) | > 100 µM (inactive) | 20.6 µM (inactive) | > 100 µM (inactive) | > 100 µM (inactive) | > 100 µM (inactive) | 35.8 µM (inactive) | 30.1 µM (inactive) | > 100 µM (inactive) | > 100 µM (inactive) | 75.3 µM (inactive) | > 100 µM (inactive)
12 | O=C(/C=C/c1ccc(Cl)cc1)c1nc2ccccc2[nH]1 | 13 µM (inactive) | 16.6 µM (inactive) | 12.3 µM (inactive) | 17.5 µM | 72.1 µM (inactive) | 15.2 µM (inactive) | 2.22 µM (inactive) | – | 42.5 µM (inactive) | 19 µM (inactive) | 2.19 µM (inactive) | 14.2 µM (inactive) | 32.4 µM (inactive) | 21.7 µM (inactive) | 5.78 µM (inactive) | 14.5 µM (inactive) | 10.9 µM (inactive) | 37.8 µM (inactive) | 19.9 µM (inactive) | 34.6 µM (inactive)
13 | Cn1nc2n(c1=O)CCCN2 | > 100 µM (inactive) | > 100 µM (inactive) | > 100 µM (inactive) | > 100 µM | > 100 µM (inactive) | > 100 µM (inactive) | – | > 100 µM (inactive) | > 100 µM (inactive) | > 100 µM (inactive) | > 100 µM (inactive) | > 100 µM (inactive) | > 100 µM (inactive) | – | – | > 100 µM (inactive) | – | > 100 µM (inactive) | > 100 µM (inactive) | > 100 µM (inactive)
14 | OC(c1cccnc1)C(F)(F)c1nc2ccccc2o1 (configuration not stated) | > 100 µM (inactive) | > 100 µM (inactive) | 50.8 µM (inactive) | > 100 µM | > 100 µM (inactive) | > 100 µM (inactive) | > 100 µM (inactive) | – | > 100 µM (inactive) | > 100 µM (inactive) | > 100 µM (inactive) | > 100 µM (inactive) | > 100 µM (inactive) | – | > 100 µM (inactive) | > 100 µM (inactive) | > 100 µM (inactive) | 49.9 µM (inactive) | > 100 µM (inactive) | > 100 µM (inactive)
15 | Cc1ccc2n(c1)cc(-c1ccc(/C=N/NC(=N)N/N=C/c3ccc(-c4cn5cc(C)ccc5[n+]4C)cc3)cc1)[n+]2C | 36.3 µM (inactive) | > 100 µM (inactive) | – | 95.9 µM | 74.3 µM (inactive) | – | > 100 µM (inactive) | 50.2 µM (inactive) | > 100 µM (inactive) | 26.9 µM (inactive) | > 100 µM (inactive) | 21.4 µM (inactive) | 19.5 µM (inactive) | > 100 µM (inactive) | > 100 µM (inactive) | > 100 µM (inactive) | 25.6 µM (inactive) | – | > 100 µM (inactive) | > 100 µM (inactive)
16 | CC(C)(C)[Si](C)(C)OCC#C[C@@]1(O)CCCCC1CC(Sc1ccccc1)Sc1ccccc1 (some centres not stated) | 13.5 µM (inactive) | 16.3 µM (inactive) | 15.8 µM (inactive) | 14.9 µM | – | 17.3 µM (inactive) | 10.2 µM (inactive) | 18.2 µM (inactive) | 15 µM (inactive) | 13.9 µM (inactive) | 15.3 µM (inactive) | – | 16.3 µM (inactive) | 15.7 µM (inactive) | 10.7 µM (inactive) | 17.9 µM (inactive) | 13.9 µM (inactive) | 16.3 µM (inactive) | 13.5 µM (inactive) | 15.4 µM (inactive)
